Entries after “also recorded” stand apart in the source; their conditions may differ.
Columns and labels:
CD33+ MDSC = experiment: MDSC in peripheral blood of a case study subject treated with IMPRIME PGG; assay type: in vivo, human; conditions: within hours post-infusion, cycle 8, day 1
Text: Blood was drawn at various times from a case study subject undergoing treatment with IMPRIME PGG and analyzed for the presence of MDSC. The first blood draw was done pre-infusion, cycle 8, day 1. […] A second blood draw was done post-infusion, cycle 8, day 1. […] The last blood sample was drawn pre-infusion, cycle 8, day 15. The CD33^+ MDSC are again present in the peripheral blood.

Tregs = experiment: Treg suppression assay; assay type: cell-based, human
Protocol: Since these PBMC cultures contain Tregs, the suppressive ability of Tregs seem to be altered in the presence of soluble β-glucan and studies were carried out to determine if β-glucan affected Treg suppression. Plasma from β-glucan-treated or vehicle-treated whole blood (described above) was added to 25,000 isolated CFSE-labeled autologous CD4 T cells (CD4^+CD25^−) along with increasing numbers of isolated autologous Tregs (CD4^+CD25^+) resulting in wells with increasing ratios. Cells were then stimulated with 50,000 T cell activating CD3/28 beads for 3 days. Proliferation was subsequently measured by CFSE dilution and quantified by Division Index, which was used to calculate the % suppression of Tregs in the co-culture. % suppression=100-(Division Index of Treg well/Division Index of 1:0 well)[…].
The Treg suppression assay was conducted as described above, and after 3 days of co-culture, supernatants were analyzed for IFN-gamma production.

CD4 T cells = experiment: Mac-CD4 T co-culture, surface marker modulation on T cells; assay type: cell-based, human; conditions: T cells co-cultured with β-glucan-treated vs vehicle-treated M2 macrophages
Protocol: For evaluation of Mac-CD4 T cell surface marker modulation, M2 macrophages were co-cultured with T cells as described above and cells were harvested on day 8, day 9 and day 10 to perform surface receptor staining on both M2 macrophages and T cells.
Changes in surface marker expression on both macrophages and CD3 & CD28-stimulated T cells were also measured. Vehicle- and β-glucan-treated M2 macrophages and CD T cells from the co-cultures were evaluated by flow cytometry for the modulation of co-stimulatory or co-inhibitory molecules. FIG. 8C and Table 9 are representative results from 2 different experiments.

CD4 and CD8 T cells [1] = experiment: Allogeneic mixed lymphocyte reaction with mMoDC; assay type: cell-based, human; conditions: β-glucan-treated mMoDC from high binders
CD4 and CD8 T cells [2] = experiment: T cell proliferation and activation of PBMCs in plasma from β-glucan-treated whole blood; assay type: cell-based, human
Protocol: To obtain plasma, whole blood was treated for 6 hours with 25 μg/mL β-glucan or vehicle, spun down and the plasma removed. 50,000 autologous CFSE-labeled PBMCs were cultured in the treated plasma for 3 days in the presence of 50,000 T cell activating CD3/28 beads (DYNABEADS Human T-Activator CD3/CD28 for T Cell Expansion and Activation). At the end of the culture, PBMCs were stained with CD4 and CD8 and T cell proliferation was measured by CFSE dilution.
Next, to show the effect of soluble β-glucan on CD4 and CD8 cell activation, the T cell proliferation assay described above was again carried out. At day 3, however, the cells were stained for markers of activation including Granzyme B production and CD25 upregulation.

M2 macrophages = experiment: Flow cytometry of M1/M2 markers on M2 macrophages derived from β-glucan-treated whole blood; assay type: cell-based, human; conditions: for expression of CD163: M2 macrophages, vs vehicle
Protocol: CD14^+ monocytes from human whole blood were enriched using Ficoll gradient and magnetic bead separation. Enriched monocytes (5×10^5 cells per mL) were then cultured in either M1-polarizing (XVivo 10 media (Lonza Group) supplemented with 5% autologous serum and 100 ng/mL recombinant human granulocyte macrophage colony-stimulating factor (rhGM-CSF) (R&D Systems) or M2-polarizing (XVivo 10 media supplemented with 10% autologous serum and 50 ng/mL recombinant human macrophage colony-stimulating factor (rhM-CSF) (R&D Systems) conditions for 6 days. In experiments performed to evaluate the effect of β-glucan, whole blood was first incubated with vehicle (sodium citrate buffer) or 25 μg/mL soluble β-glucan for 2 hours at 37° C. and then the monocytes were isolated and differentiated. Morphology was checked before macrophages were harvested for phenotypic analysis. Culture medium of the day 6 macrophage culture (MCM) was collected, spun down to remove contaminated cell pellet and then frozen down for subsequent cytokine analysis by ELISA or used to setup a co-culture with CD3 & CD28-stimulated CD4 T cells (MCM-CD4 T) for evaluation of either surface markers or CD4 T cell proliferation. The macrophages were used to setup a co-culture with CD3 & CD28- or CD3 only-stimulated CD4 T cells (Mac-CD4 T) on day 6 for evaluation of either surface marker modulation or effect on CD4 T cell proliferation. For Mac-CD4 T cell proliferation study, M1 or M2 macrophages were cultured with CD3 & CD28- or CD3 only-stimulated, CFSE-labeled, autologous CD4 T cells at a 1:10 ratio. T cell proliferation was measured at the end of the experiment (day 9-day 11) by flow cytometry, and results are graphically shown as CFSE-dilution peaks. The assessment of CD3-only stimulated T cells was always done on day 11. Quantitative results were reported as the Division Index (the average number of cell divisions a population underwent) calculated for each of the triplicate wells in each of the culture conditions. Culture supernatants of Mac-CD4 T cell co-cultures were collected for subsequent cytokine analysis.
M1 and M2 macrophages from vehicle- or […] whole blood were prepared as described above. […] In addition, surface expression of CD86 was enhanced as well as both protein and mRNA levels of PD-L1 (FIG. 2B).
Expression of a panel of markers was evaluated by flow cytometry for vehicle- and β-glucan-treated, high binder-derived M1 and M2 macrophages (CD163 was evaluated twice).
CD163 and CD86 were evaluated by flow cytometry for vehicle- and β-glucan-treated, low binder-derived M1 and M2 macrophages.

[3] = β-glucan-treated M2 macrophages vs vehicle

Question: Which “CD33+ MDSC in peripheral blood” value (CD33+ MDSC) does the source give for “β(1,6)-[poly-(1,3)-D-glucopyranosyl]-poly-β(1,3)-D-glucopyranose [β-glucan]” here?
Answer: The value was “transiently disappear”.

Question: What about the IFN-gamma production (Tregs; Treg suppression assay, 3 days, 8:1 T cell to Treg ratio) of the same substance?
Answer: Its IFN-gamma production is “enhanced IFN-gamma production”.

Question: What about the “suppressive capacity of Tregs” value (Tregs; plasma from β-glucan-treated vs vehicle-treated whole blood) of the same substance?
Answer: The value was “significant decreases”.

Question: And the “Change in MFI on T cells: 4-1BB” value (CD4 T cells)?
Answer: The value was “No change”.

Question: And the “Change in MFI on T cells: CD28” value (CD4 T cells)?
Answer: The value was “No change”.

Question: And the “Change in MFI on T cells: CD40L” value (CD4 T cells)?
Answer: The value was “No change”.

Question: What about the “Change in MFI on T cells: CTLA-4” value (CD4 T cells) of the same substance?
Answer: The value was “No change”.

Question: What about the “Change in MFI on T cells: PD1 (CD279)” value (CD4 T cells; day 9) of the same substance?
Answer: The value was “Increased expression; also recorded: Increase”.

Question: What about the “immunogenicity in allo-MLR (CD4 and CD8 T cell expansion)” value (CD4 and CD8 T cells [1]; over low binders) of the same substance?
Answer: The value was “increased immunogenicity”.

Question: And the IFN-γ production (CD4 and CD8 T cells [1]; over low binders and vehicle)?
Answer: The IFN-γ production was “able to modulate IFN-γ production”.

Question: What about the “CD4 and CD8 proliferation” value (CD4 and CD8 T cells [2]; plasma from whole blood treated 6 hours with 25 μg/mL β-glucan, vs vehicle, CD3/28 beads, 3 days) of the same substance?
Answer: Its value is “significant enhancement”.

Question: What about the “CD4 and CD8 cell activation (Granzyme B production, CD25 upregulation)” value (CD4 and CD8 T cells [2]; β-glucan-treated plasma, day 3) of the same substance?
Answer: The value was “enhances”.

Question: What about the “expression of CD163” value (M2 macrophages; high binders) of the same substance?
Answer: The value was “lower expression”.

Question: What about the “expression of CD163” value (M2 macrophages; low binders) of the same substance?
Answer: Its value is “remained the same”.

Question: And the “mean fluorescence intensity (MFI) of CD163” value (M2 macrophages; [3])?
Answer: The value was “downmodulated”.

Question: What about the “protein and mRNA levels of PD-L1” value (M2 macrophages; [3]) of the same substance?
Answer: Its value is “enhanced”.

Question: What about the “surface expression of CD86” value (M2 macrophages; [3]) of the same substance?
Answer: The value was “enhanced”.

— US10111900B2, “β-glucan methods and compositions that affect the tumor microenvironment” (Biothera, Inc., priority 2014, dated 2018)
